Laboratory results from US20220064127A1, “PLATELET AGGREGATION INHIBITOR, PREPARATION AND USES THEREOF” (SHENYANG HINEWY PHARMACEUTICAL TECHNOLOGY CO., LTD., priority 2020, published 2022).

What was measured:
[1] = system: ADP-Induced Platelet Aggregation; assay: Inhibition of ADP-induced platelet aggregation in rabbit platelet-rich plasma (microplate method); type: cell-based; settings: Oryctolagus cuniculus, Platelet, rabbit PRP, inducer ADP; for IC50: absorbance 655 nm, read-out: IC50 (Mean ± SE), ADP-induced platelet aggregation; for inhibition at 30 µM: read-out: Inhibition rate of target compounds on platelet aggregation at 30 μM
Experimental: Example 62 Investigation on Inhibition of ADP-Induced Platelet Aggregation in Rabbit
A blood sample was collected from ear vein of a healthy male rabbit, added with 3.8% sodium citrate for anticoagulation and then centrifuged at 800 r/min for 10 min to prepare platelet-rich plasma (PRP) and at 3,000 r/min for 10 min to prepare platelet-poor plasma (PPP). The investigation on the plasma should be performed within 0.5-3 h after the preparation.
2. Determination of Platelet Aggregation by Microplate Method
The drugs to be tested were weighed and added with an appropriate amount of DMSO to prepare a series of 10 mM stock solutions, which were respectively diluted to prepare 10× stock solutions with normal saline for further use.
Several wells of a microplate were selected as test wells, which were added with 135 μL of PRP and then respectively added with 15 μL of the 10× stock solutions. A well in which 135 μL of PRP and 15 μL of normal saline were added was used as the vehicle control, and a well in which 135 μL of PPP and 15 μL of normal saline were added was used as the blank control. Duplicate wells were set for each test well. The plate was shaken, incubated at 37° C. for 5 min, and then measured for A0 at 655 nm. Subsequently, the microplate was added with 15 μL of an inducer […] (ADP) working solution (25 μmol/L) in each well, incubated at 37° C. under shaking and measured at 655 nm for A1, where the incubation time was determined according to the time in the pre-experiment when the maximum aggregation appeared. The platelet aggregation rate (AR) and platelet aggregation inhibition rate (AIR) were calculated according to the following formulas:
AR=(1−ARtest sample/ARcontrol)

[2] = system: carotid artery thrombus induced by ferric chloride; assay: Effect of intragastric administration on FeCl3-induced carotid arterial thrombosis in male SD rats; type: in vivo, male Sprague Dawley (SD) rats; settings: for Wet weight of thrombus: daily for one week, male SD rats, 20% FeCl3
Experimental: Example 63 Effect of Intragastric Administration of Compound LY-26y on Arterial Thrombosis in Male Sprague Dawley (SD) Rats
1. Experimental animals: 50 male SD rats, 260-320 g (n=10).
2. Main reagents: ferric chloride, urethane, 0.5% CMC-Na, 0.9% NaCl.
The 50 male SD rats were randomly and averagely divided into five groups, respectively model group, low-dose LY-26y group (5 mg/kg), medium-dose LY-26y group (10 mg/kg), high-dose LY-26y group (20 mg/kg) and positive control group (10 mg/kg ticagrelor). After experiencing one-week adaptation, the rats in the experimental groups were treated by intragastric administration of LY-26y by at 9 am every day, and the model group was treated with 0.5% CMC-Na solution. After continuously treated for one week, the rats were anesthetized by intraperitoneal injection of 20% urethane ([…]) 8 min after the last administration. Then the anesthetized rats were placed on an insulation plate (to maintain body temperature) in a supine position, and a straight incision was made on the midline of the neck to expose the right common carotid artery. A plastic film (1.5×1.0 cm^2) was placed under the artery to protect the surrounding tissues. The filter paper was cut into a size of 1.0×0.8 cm^2, soaked with a 20% FeCl3 solution and then used to coat the exposed artery for 30 min to induce […] thrombosis. After 2 h of the administration, a 1.5-cm […] carotid artery was collected and weighed, and then the blood vessel was cut to remove the thrombus therein to measure the weight of the blood vessel wall, where the weight difference was the weight of thrombus.

IC50 [1] [µM]	SMILES	also measured
8.75 ± 0.159	CCOC(=O)c1c(C)nc(-c2cccc(C#N)c2)n1OCc1ccc([N+](=O)[O-])cc1 [LY-26v, ethyl 2-(3-cyanophenyl)-4-methyl-1-[(4-nitrobenzyl)oxy]-1H-imidazole-5-carboxylate]	
9.38 ± 0.565	CCOC(=O)c1c(C)nc(-c2cccc(C#N)c2)n1OCc1ccccc1C#N [LY-26w, ethyl 1-[(2-cyanobenzyl)oxy]-2-(3-cyanophenyl)-4-methyl-1H-imidazole-5-carboxylate]	
	CCOC(=O)c1c(C)nc(-c2cccc(C#N)c2)n1OCc1cccc(C#N)c1 [LY-26x, ethyl 1-[(3-cyanobenzyl)oxy]-2-(3-cyanophenyl)-4-methyl-1H-imidazole-5-carboxylate]	inhibition at 30 µM [1]: 3.21%
7.99 ± 0.217	COn1c(-c2cccc(C#N)c2)nc(C)c1C(=O)O [LY-27a, 4-methyl-2-(3-cyanophenyl)-1-methoxy-1H-imidazole-5-carboxylic acid]	
9.71 ± 0.557	CCOn1c(-c2cccc(C#N)c2)nc(C)c1C(=O)O [LY-27b, 4-methyl-2-(3-cyanophenyl)-1-ethoxy-1H-imidazole-5-carboxylic acid]	
6.35 ± 0.469	C=CCOn1c(-c2cccc(C#N)c2)nc(C)c1C(=O)O [LY-27d, 4-methyl-2-(3-cyanophenyl)-1-allyloxy-1H-imidazole-5-carboxylic acid]	
6.24 ± 0.324	Cc1nc(-c2cccc(C#N)c2)n(OCc2ccccc2)c1C(=O)O [LY-27k, 4-methyl-2-(3-cyanophenyl)-1-benzyloxy-1H-imidazole-5-carboxylic acid]	
6.56 ± 0.357	Cc1ccc(COn2c(-c3cccc(C#N)c3)nc(C)c2C(=O)O)cc1 [LY-27s, 4-methyl-2-(3-cyanophenyl)-1-(4-methylbenzyl)oxy-1H-imidazole-5-carboxylic acid]	
3.88 ± 0.269	Cc1nc(-c2cccc(C#N)c2)n(OCc2ccc(C#N)cc2)c1C(=O)O [LY-27y, 4-methyl-2-(3-cyanophenyl)-1-(4-cyanobenzyl)oxy-1H-imidazole-5-carboxylic acid]	
9.57 ± 0.226	CCCNC(=O)c1c(C)nc(-c2cccc(C#N)c2)n1OC [LY-28a, 4-methyl-2-(3-cyanophenyl)-1-methoxy-N-propyl-1H-imidazole-5-carboxamide]	
11.2 ± 0.966	COn1c(-c2cccc(C#N)c2)nc(C)c1C(=O)NC(C)C [LY-28b, 4-methyl-2-(3-cyanophenyl)-1-methoxy-N-isopropyl-1H-imidazole-5-carboxamide]	
15.9 ± 1.2	COn1c(-c2cccc(C#N)c2)nc(C)c1C(=O)Nc1ccccc1 [LY-28c, 2-(3-cyanophenyl)-1-methoxy-4-methyl-N-phenyl-1H-imidazole-5-carboxamide]	
	CCOC(=O)c1[nH]c(-c2cccc(C#N)c2)nc1C [LY-29, ethyl 2-(3-cyanophenyl)-4-methyl-1H-imidazole-5-carboxylate]	inhibition at 30 µM [1]: 32.5%
22.1 ± 0.703	CCOC(=O)c1c(C)nc(-c2cccc(C#N)c2)n1C [LY-30a, ethyl 2-(3-cyanophenyl)-1,4-dimethyl-1H-imidazole-5-carboxylate]	

SMILES	IC50 [1] [µM]	also measured
CCOC(=O)c1c(C)nc(-c2cccc(C#N)c2)n1OCc1ccc(C#N)cc1 [LY-26y, ethyl 1-[(4-cyanobenzyl)oxy]-2-(3-cyanophenyl)-4-methyl-1H-imidazole-5-carboxylate]	4.237 ± 0.0156	Wet weight of thrombus ([2]; 5 mg/kg intragastric): 6.38 ± 0.18 mg; Wet weight of thrombus ([2]; 10 mg/kg intragastric): 4.89 ± 0.33 mg; Wet weight of thrombus ([2]; 20 mg/kg intragastric): 4.39 ± 0.26 mg; Effect on weight of the FeCl3-induced arterial thrombus in rats ([2]; intragastric administration, in words): significantly reduced
CCCSc1nc(N[C@@H]2C[C@H]2c2ccc(F)c(F)c2)c2nnn([C@@H]3C[C@H](OCCO)[C@@H](O)[C@H]3O)c2n1 [Ticagrelor, reference compound]	7.21 ± 0.251	Wet weight of thrombus ([2]; 10 mg/kg intragastric): 5.01 ± 0.16 mg
